Results reported in patent US20170355687A1, “ANTIBACTERIAL BENZOTHIAZOLE DERIVATIVES” (Actelion Pharmaceuticals Ltd, priority 2014, published 2017).
Converted amounts (≈) assume the structure as drawn.

Experiments:
Test in all cases: Bacterial growth minimal inhibitory concentration, microdilution in cation-adjusted Mueller-Hinton Broth (CLSI M7-A7)
Assay type in all cases: cell-based
K. Pneumoniae A-651 = conditions: Klebsiella pneumoniae; multiply-resistant (in particular quinolone-resistant) strain; read-out: MIC for K. Pneumoniae A-651
Description: (§1) Minimal Inhibitory Concentrations (MICs; mg/L) were determined in cation-adjusted Mueller-Hinton Broth by a microdilution method following the description given in “Methods for Dilution Antimicrobial Susceptibility Tests for Bacteria that Grow Aerobically”, Approved standard, 7th ed., Clinical and Laboratory Standards Institute (CLSI) Document M7-A7, Wayne, Pa., USA (2006).
(§2) All Example compounds were tested against several Gram-positive and Gram-negative bacteria. […] K pneumoniae A-651 is a multiply-resistant (in particular quinolone-resistant) strain, while E. coli ATCC25922 and P. aeruginosa ATCC27853 are quinolone-sensitive strains.

E. coli ATCC25922 = conditions: Escherichia coli, ATCC25922; quinolone-sensitive strain; read-out: MIC for E. coli ATCC25922
Description: as §1, §2

P. aeruginosa ATCC27853 = conditions: Pseudomonas aeruginosa, ATCC27853; quinolone-sensitive strain; read-out: MIC for P. aeruginosa ATCC27853
Description: as §1, §2

Structure (SMILES) | MIC (K. Pneumoniae A-651) [mg/L] | MIC (E. coli ATCC25922) [mg/L] | MIC (P. aeruginosa ATCC27853) [mg/L]
C[C@@](CCc1nc2ccc(C#CC#C[C@H](O)CO)cc2s1)(C(=O)NO)S(C)(=O)=O [Example 5, (R)-4-(6-((S)-5,6-dihydroxyhexa-1,3-diyn-1-yl)benzo[d]thiazol-2-yl)-N-hydroxy-2-methyl-2-(methylsulfonyl)butanamide] | 8 (≈ 18.3 µM) | 1 (≈ 2.29 µM) | 1 (≈ 2.29 µM)
C[C@@](CCc1nc2ccc(C#CC#C[C@H]3C[C@]3(F)CO)cc2s1)(C(=O)NO)S(C)(=O)=O [Example 27, (R)-4-(6-(((1R,2R)-2-fluoro-2-(hydroxymethyl)cyclopropyl)buta-1,3-diyn-1-yl)benzo[d]thiazol-2-yl)-N-hydroxy-2-methyl-2-(methylsulfonyl)butanamide] | 0.125 (≈ 0.269 µM) | 0.063 (≈ 0.136 µM) | 0.25 (≈ 0.538 µM)
C[C@@](CCc1nc2ccc(C#CC#C[C@H]3C[C@]3(F)CO)cc2s1)(C(=O)NO)S(C)(=O)=O (relative stereo) [Example 24, (R)-4-(6-(((1R*,2R*)-2-fluoro-2-(hydroxymethyl)cyclopropyl)buta-1,3-diyn-1-yl)benzo[d]thiazol-2-yl)-N-hydroxy-2-methyl-2-(methylsulfonyl)butanamide] | 0.25 (≈ 0.538 µM) | ≤ 0.063 | 0.25 (≈ 0.538 µM)
C[C@@](CCc1nc2ccc(C#Cc3ccc(C4(O)COC4)cc3)cc2s1)(C(=O)NO)S(C)(=O)=O [Example 3, (R)-N-hydroxy-4-(6-((4-(3-hydroxyoxetan-3-yl)phenyl)ethynyl)benzo[d]thiazol-2-yl)-2-methyl-2-(methylsulfonyl)butanamide] | 1 (≈ 2 µM) | 4 (≈ 7.99 µM) | 8 (≈ 16 µM)
C[C@@](CCc1nc2ccc(C#CC#CC3(CO)CC3)cc2s1)(C(=O)NO)S(C)(=O)=O [Example 8, (R)-N-hydroxy-4-(6-((1-(hydroxymethyl)cyclopropyl)buta-1,3-diyn-1-yl)benzo[d]thiazol-2-yl)-2-methyl-2-(methylsulfonyl)butanamide] | 0.5 (≈ 1.12 µM) | 0.25 (≈ 0.56 µM) | 0.5 (≈ 1.12 µM)
CC(CCc1nc2ccc(C#CC#CCO)cc2s1)(C(=O)NO)S(C)(=O)=O (racemic) [RE4, (RS)-N-hydroxy-4-(6-(5-hydroxypenta-1,3-diyn-1-yl)benzo[d]thiazol-2-yl)-2-methyl-2-(methylsulfonyl)butanamide] | 8 (≈ 19.7 µM) | 0.5 (≈ 1.23 µM) | 1 (≈ 2.46 µM)
C[C@@](CCc1nc2ccc(C#CC#CC3(CO)COC3)cc2s1)(C(=O)NO)S(C)(=O)=O [Example 20, (R)-N-hydroxy-4-(6-((3-(hydroxymethyl)oxetan-3-yl)buta-1,3-diyn-1-yl)benzo[d]thiazol-2-yl)-2-methyl-2-(methylsulfonyl)butanamide] | 0.5 (≈ 1.08 µM) | 0.5 (≈ 1.08 µM) | 1 (≈ 2.16 µM)
